We go through 28 compounds from US20100009970A1, “COMPOSITIONS AND METHODS FOR TREATMENT OF VIRAL DISEASES” (Combinatorx (Singapore) Pte. Ltd., priority 2008, published 2010).

One series can be described thus: in vitro. The settings on record: human.
Series [1] relates to Huh7 cells expressing a subgenomic RNA replicon of Con1 (genotype 1b) sequence origin. Put plainly: microbe, parasite or virus in culture. The settings on record: Hepatitis C virus.
[2] abbreviates: Huh-7, read-out: IC50 (uM) [SG].
[3] abbreviates: Huh-7, read-out: Max Effect@CC30 (inhibition).
Setting [4] is: GETYPE1B, Huh-7, 72 h, read-out: Max Effect @CC30 (inhibition).

In general, IC50 refers to the point on the concentration scale where inhibition reaches its midpoint. The IC90 is the point of the concentration-response curve where the effect stands at 90%. Lower therefore signals an effect from little substance.

Read-outs that look alike come from different tables or passages of the source. Where only a bound is given, the exact number is not on record here.

In “in vitro” (CC50 (uM) [SG]), `CSc1ccc(Oc2ccc(S(=O)(=O)Nc3ccccc3)cc2CN(C)C)cc1C` [Compound 49, 3-((dimethylamino)methyl)-4-(3-methyl-4-(methylthio)phenoxy)-N-phenylbenzenesulfonamide] displayed a CC50 of 10.8 µM. The IC50 in series [1] (setting [2]) was determined as 6.53 µM. Further, the Emax in series [1] (setting [3]) turned out to be 15.3%.

In turn, `CNC1CCC(c2ccc(OC)cc2)c2ccccc21` (stereo not shown) [Sertraline B-Ring Para-Methoxy, 4-(4-methoxyphenyl)-N-methyl-1,2,3,4-tetrahydronaphthalen-1-amine] registered a CC50 in “in vitro” (CC50 (uM) [SG]) of 51.1 µM. Moreover, in series [1] (setting [2]), the IC50 came out at 26.8 µM.

With `CN(CCO)[C@H]1CC[C@@H](c2ccc(Cl)c(Cl)c2)c2ccc(C[S+](C)[O-])cc21` (stereo partly drawn) [2-(((1S,4S)-4-(3,4-dichlorophenyl)-7-(methylsulfinylmethyl)-1,2,3,4-tetrahydronaphthalen-1-yl)(methyl)amino)ethanol], the CC50 in “in vitro” (CC50 (uM) [SG]) was over 50 µM. For the same compound, the IC50 in series [1] (setting [2]) was found to be 24.2 µM.

Compound `CSc1ccc(Oc2ccc(S(N)(=O)=O)cc2CN2CCN(C)CC2)cc1C` [Compound 63, 4-(3-methyl-4-(methylthio)phenoxy)-3-((4-methylpiperazine-1-yl)methyl)benzenesulfonamide] showed a CC50 in “in vitro” (CC50 (uM) [SG]) of over 50 µM. The compound also gave an IC90 in series [1] (Huh-7) of 10.5 µM. Besides, in series [1] (setting [2]), the IC50 was 4.82 µM.

With `CN[C@H]1CC[C@@H](c2ccc(Cl)c(Cl)c2)c2ccc([N+](=O)[O-])cc21` [Nitro Sertraline, (1S,4S)-4-(3,4-dichlorophenyl)-N-methyl-7-nitro-1,2,3,4-tetrahydronaphthalen-1-amine], the CC50 in the series “in vitro” (CC50 (uM)) and in the series “in vitro” (CC50 (uM) [SG]) was 8.03 µM in each case. Also, the Emax in series [1] (setting [4]) and in series [1] (setting [3]) was 27% in each case. Further, the IC50 in series [1] (Huh-7, 72 h) came out at 6.46 µM; in series [1] (setting [2]), 6.46 µM.

In the case of `CN[C@@H]1CC[C@H](c2ccc(Cl)c(Cl)c2)c2ccccc21` [1R,4R Sertraline Enantiomer, (1R,4R)-4-(3,4-dichlorophenyl)-N-methyl-1,2,3,4-tetrahydronaphthalen-1-amine], the CC50 at 72 h in “in vitro” (CC50 (uM)) was determined as 14.3 µM. In addition, the CC50 in “in vitro” (CC50 (uM) [SG]) was 14.6 ± 0.37 µM. Also, the Emax in series [1] (setting [4]) worked out at 42%; in series [1] (setting [3]), 58.7 ± 23.6%.

In the series “in vitro” (CC50 (uM) [SG]), `CSc1ccc(N(C)c2ccc(Br)cc2CN(C)C)cc1C` [Compound 98, 4-Bromo-2-((dimethylamino)methyl)-N-methyl-N-(3-methyl-4-(methylthio)phenyl)aniline] yielded a CC50 of over 50 µM. For the same compound, the IC90 in series [1] (Huh-7) was 26.8 µM. Besides, the IC50 in series [1] (setting [2]) was found to be 25 µM.

As for `CN[C@H]1CC[C@@H](c2ccc(Cl)c(Cl)c2)c2ccc(NC(=O)C3CCCC3)cc21` [N-((5S,8S)-5-(3,4-dichlorophenyl)-8-(methylamino)-5,6,7,8-tetrahydronaphthalen-2-yl)cyclopentanecarboxamide], the CC50 in the series “in vitro” (CC50 (uM)) and in the series “in vitro” (CC50 (uM) [SG]) was 7 µM throughout. Moreover, the IC50 in series [1] (Huh-7) and in series [1] (setting [2]) was 4.02 µM each time. In series [1] (Huh-7), this compound came in with an IC90 of 5.89 µM. The Emax in series [1] (setting [3]) came out at 22.9%.

As for `CSc1ccc(Oc2ccc(S(N)(=O)=O)cc2CN2CCN(C(C)C)CC2)cc1C` [Compound 106, 3-((4-isopropylpiperazin-1-yl)methyl)-4-(3-methyl-4-(methylthio)phenoxy)benzenesulfonamide], in “in vitro” (CC50 (uM) [SG]), the CC50 was found to be 24.3 µM. In series [1] (Huh-7), the IC90 was 8.21 µM. Besides, the IC50 in series [1] (setting [2]) came out at 3.57 µM.

`CNCc1cc(S(N)(=O)=O)ccc1Oc1ccc(SC)cc1` [Compound 43, 3-((methylamino)methyl)-4-(4-(methylthio)phenoxy)benzenesulfonamide] returned a CC50 in the series “in vitro” (CC50 (uM) [SG]) of over 50 µM. For the same compound, the IC50 in series [1] (setting [2]) worked out at 32.7 µM. Also, the Emax in series [1] (setting [3]) is 73.7%.

Compound `CSc1ccc(Nc2ccc(S(N)(=O)=O)cc2CN(C)C)cc1C` [Compound 108, 3-((dimethylamino)methyl)-4-(3-methyl-4-(methylthio)phenylamino)benzensulfonamide] gave a CC50 in the series “in vitro” (CC50 (uM) [SG]) of 44.9 µM. Besides, the IC90 in series [1] (Huh-7) is 17 µM. Further, the IC50 in series [1] (setting [2]) is 2.64 µM.

The compound `CSc1ccc(Oc2ccc(C#N)cc2CN(C)C)cc1C` [Compound 7, 3-((dimethylamino)methyl)-4-(3-methyl-4-(methylthio)phenoxy)benzonitrile] displayed a CC50 in the series “in vitro” (CC50 (uM) [SG]) of over 50 µM. The same compound showed an IC90 in series [1] (Huh-7) of 11.5 µM. For the same compound, the IC50 in series [1] (setting [2]) came to 6.4 µM. The Emax in series [1] (setting [3]) worked out at 96.7%.

In “in vitro” (CC50 (uM) [SG]), `CSc1ccc(Oc2ccc(S(=O)(=O)NC3CC3)cc2CN(C)C)cc1C` [Compound 13, N-cyclopropyl-3-((dimethylamino)methyl)-4-(3-methyl-4-(methylthio)phenoxy)benzenesulfonamide] returned a CC50 of 41.8 µM. Further, in series [1] (setting [2]), the IC50 stood at 25.5 µM.

In “in vitro” (CC50 (uM) [SG]), `CSc1ccc(Oc2ccc(S(N)(=O)=O)cc2CN(C)CCO)cc1C` [Compound 2, 3-(((2-hydroxyethyl)(methyl)amino)methyl)-4-(3-methyl-4-(methylthio)phenoxy)benzenesulfonamide] registered a CC50 of over 50 µM. The IC90 in series [1] (Huh-7) came to 20.1 µM. Further, the concentration for half-maximal inhibition (IC50) in series [1] (setting [2]) turned out to be 5.58 µM.

For `CNCc1ccccc1Oc1ccc(C(F)(F)F)cc1` [Compound 39, N-methyl-1-(2-(4-(trifluoromethyl)phenoxy)phenyl)methanamine], the CC50 in “in vitro” (CC50 (uM) [SG]) is over 50 µM. Also, the 90% effect level in series [1] (Huh-7) (IC90) was put at 50 µM. In addition, the IC50 in series [1] (setting [2]) is 37.5 µM. For the same compound, the Emax in series [1] (setting [3]) was determined as 91.7%.

Consider `CN(C(=O)c1ccc2c(c1)[C@@H](N(C)C)CC[C@H]2c1ccc(Cl)c(Cl)c1)C1CC1` [(5S,8S)—N-cyclopropyl-5-(3,4-dichlorophenyl)-8-(dimethylamino)-N-methyl-5,6,7,8-tetrahydronaphthalene-2-carboxamide], for which the CC50 in the series “in vitro” (CC50 (uM) [SG]) turned out to be 26.3 µM. The IC50 in series [1] (setting [2]) came out at 13 µM.

Take `CN[C@H]1CC[C@@H](c2ccc(Cl)c(Cl)c2)c2ccc(S(=O)(=O)NCCO)cc21` [Sertraline Sulfonamide Ethanol, (5S,8S)-5-(3,4-dichlorophenyl)-N-(2-hydroxyethyl)-8-(methylamino)-5,6,7,8-tetrahydronaphthalene-2-sulfonamide]: the CC50 in “in vitro” (CC50 (uM)) and in the series “in vitro” (CC50 (uM) [SG]) was 13.8 µM in each case. For the same compound, the Emax in series [1] (setting [4]) and in series [1] (setting [3]) was 80% throughout. For the same compound, the IC50 in series [1] (Huh-7, 72 h) was 8.13 µM; in series [1] (setting [2]) it was 8.13 µM.

In turn, `CNCc1cc(Br)ccc1Oc1cccc(OC)c1` [Compound 37, (5-bromo-2-(3-methoxyphenoxy)phenyl)-N-methylmethanamine] had a CC50 in “in vitro” (CC50 (uM) [SG]) of 46.9 µM. Further, the IC50 in series [1] (setting [2]) came out at 27.7 µM. Besides, the Emax in series [1] (setting [3]) stood at 12.4%.

Take `CSc1ccc(Oc2ccc(S(N)(=O)=O)cc2CN2CCC(N3CCOCC3)CC2)cc1C` [Compound 89, 4-(3-methyl-4-(methylthio)phenoxy)-3-((4-morpholinopiperidin-1-yl)methyl)benzenesulfonamide]: the CC50 in “in vitro” (CC50 (uM) [SG]) is over 50 µM. The same compound had an IC90 in series [1] (Huh-7) of 21.3 µM. Further, the IC50 in series [1] (setting [2]) was found to be 6.62 µM.

In turn, `CSc1ccc(Oc2ccc(S(N)(=O)=O)cc2CN2CCCCC2)cc1C` [Compound 73, 4-(3-methyl-4-(methylthio)phenoxy)-3-(piperidin-1-ylmethyl)benzenesulfonamide] registered a CC50 in “in vitro” (CC50 (uM) [SG]) of 37.9 µM. This compound returned an IC90 in series [1] (Huh-7) of 13.6 µM. Also, in series [1] (setting [2]), the IC50 was found to be 4.7 µM.

In “in vitro” (CC50 (uM) [SG]), `CC(C)C1CC[C@@H](c2ccc(Cl)c(Cl)c2)c2ccc(C(N)=O)cc21` (stereo partly drawn) [Isopropyl Sertraline A-Ring Carboxamide, (S)-5-(3,4-dichlorophenyl)-8-isopropyl-5,6,7,8-tetrahydronaphthalene-2-carboxamide] registered a CC50 of over 50 µM. In addition, in series [1] (setting [2]), the IC50 came to 38.9 µM.

`CC(C)C1CCC(c2ccc(Cl)c(Cl)c2)c2ccccc21` (stereo not shown) [Isopropyl Sertraline, 1-(3,4-dichlorophenyl)-4-isopropyl-1,2,3,4-tetrahydronaphthalene] yielded a CC50 in the series “in vitro” (CC50 (uM) [SG]) of over 50 µM. Further, the 90% effect level in series [1] (Huh-7) (IC90) was put at 32.1 µM. Further, the IC50 in series [1] (setting [2]) stood at 9.25 ± 0.95 µM. Besides, in series [1] (setting [3]), the Emax is 97.96 ± 0.06%.

For the compound `CSc1ccc(Oc2ccc(S(N)(=O)=O)cc2CN2CCC[C@@H]2CO)cc1C` [Compound 102, (R)-3-((2-(hydroxymethyl)pyrrolidin-1-yl)methyl)-4-(3-methyl-4-(methylthio)phenoxy)benzenesulfonamide], in “in vitro” (CC50 (uM) [SG]), the CC50 was over 50 µM. The compound also returned an IC90 in series [1] (Huh-7) of 17.6 µM. In series [1] (setting [2]), the IC50 turned out to be 6.76 µM.

`CNC1CCC(c2cccc(OC)c2)c2ccccc21` (stereo not shown) [Sertraline B ring m-Methoxy, 4-(3-methoxyphenyl)-N-methyl-1,2,3,4-tetrahydronaphthalen-1-amine] came in with a CC50 in the series “in vitro” (CC50 (uM) [SG]) of over 50 µM. Further, the IC50 in series [1] (setting [2]) was 28.8 µM.

Compound `CSc1ccc(Oc2ccc(S(N)(=O)=O)cc2CNCCCN(C)C)cc1C` [Compound 79, 3-((3-(dimethylamino)propylamino)methyl)-4-(3-methyl-4-(methylthio)phenoxy)benzenesulfonamide] showed a CC50 in the series “in vitro” (CC50 (uM) [SG]) of 17.8 µM. The same compound displayed an IC90 in series [1] (Huh-7) of 9.66 µM. Besides, the IC50 in series [1] (setting [2]) turned out to be 3.44 µM.

`CN[C@H]1CC[C@@H](c2ccc(Cl)c(Cl)c2)c2ccc(NC(=O)c3ccccc3)cc21` [Sertraline A-Ring Reverse Benzamide, N-((5S,8S)-5-(3,4-dichlorophenyl)-8-(methylamino)-5,6,7,8-tetrahydronaphthalen-2-yl)benzamide]: the CC50 in the series “in vitro” (CC50 (uM)) and in the series “in vitro” (CC50 (uM) [SG]) was 3.67 µM in each case. For the same compound, the IC50 in series [1] (Huh-7) and in series [1] (setting [2]) was 2.94 µM throughout. The IC90 in series [1] (Huh-7) came to 3.88 µM. In addition, the Emax in series [1] (setting [3]) was found to be 62.2%.

As to `OC1CC[C@@H](c2ccc(Cl)c(Cl)c2)c2ccccc21` (stereo partly drawn) [Alcohol Sertraline-P1, (S)-4-(3,4-dichlorophenyl)-1,2,3,4-tetrahydronaphthalen-1-ol], the CC50 in the series “in vitro” (CC50 (uM) [SG]) is over 50 µM. The IC50 in series [1] (setting [2]) was 24.5 µM. Further, the Emax in series [1] (setting [3]) came out at 89.2%.

Compound `CSc1ccc(Oc2ccc(S(N)(=O)=O)cc2CN2CCCN(C)CC2)cc1C` [Compound 74, 3-((4-methyl-1,4-diazepan-1-yl)methyl)-4-(3-methyl-4-(methylthio)phenoxy)benzenesulfonamide] yielded a CC50 in the series “in vitro” (CC50 (uM) [SG]) of 35.9 µM. In addition, the 90% effect level in series [1] (Huh-7) (IC90) was put at 16.1 µM. Besides, the IC50 in series [1] (setting [2]) is 7.31 µM.
